# Data published in patent US20210254056A1, “IDENTIFICATION AND TARGETED MODULATION OF GENE SIGNALING NETWORKS” (CAMP4 THERAPEUTICS CORPORATION, priority 2017, published 2021).
# Tested on: hepatocytes
# Assay: RNA-seq of hepatocytes treated with Phase III failure compounds
# Conditions: hepatocytes
# Protocol: RNA-seq was performed to determine the effects of the compounds on hepatocytes.
# Significance was determined by the criteria of FPKM≥0.5, a log 2(fold-change)≥1, and a […].
smiles,measurement,setting,value
"CCC(CC)[C@H](NC(C)=O)[C@@H]1[C@H](O)[C@@H](C(=O)O)C[C@H]1NC(=N)N.O.O.O [peramivir (trihydrate), peramivir]",RNA-seq results: DOLK expression,gene DOLK,0.33
same,"RNA-seq results, DPM3 expression",gene DPM3,−0.11
same,RNA-seq results: DPM3 expression,gene DPM3,0.68
same,"RNA-seq results, DPYD expression",gene DPYD,−0.21
same,RNA-seq results: DPYD expression,gene DPYD,−0.43
same,"RNA-seq results, DPYS expression",gene DPYS,−0.01
same,RNA-seq results: DPYS expression,gene DPYS,−0.27
same,"RNA-seq results, EARS2 expression",gene EARS2,0.04
same,RNA-seq results: EARS2 expression,gene EARS2,−0.01
same,"RNA-seq results, EDA expression",gene EDA,−0.03
same,RNA-seq results: EDA expression,gene EDA,0.3
same,"RNA-seq results, EHHADH expression",gene EHHADH,−0.10
same,RNA-seq results: EHHADH expression,gene EHHADH,−0.3
same,"RNA-seq results, ELAC2 expression",gene ELAC2,−0.15
same,RNA-seq results: ELAC2 expression,gene ELAC2,−0.13
same,"RNA-seq results, ENO3 expression",gene ENO3,0.30
same,RNA-seq results: ENO3 expression,gene ENO3,−0.12
same,"RNA-seq results, ENPP1 expression",gene ENPP1,−0.28
same,RNA-seq results: ENPP1 expression,gene ENPP1,−0.21
same,"RNA-seq results, EPG5 expression",gene EPG5,0.13
same,RNA-seq results: EPG5 expression,gene EPG5,0
same,"RNA-seq results, EPHX1 expression",gene EPHX1,−0.26
same,RNA-seq results: EPHX1 expression,gene EPHX1,0.16
same,"RNA-seq results, ERCC4 expression",gene ERCC4,−0.23
same,RNA-seq results: ERCC4 expression,gene ERCC4,−0.18
same,"RNA-seq results, ERCC6 expression",gene ERCC6,0.05
same,RNA-seq results: ERCC6 expression,gene ERCC6,−0.09
same,"RNA-seq results, ETFB expression",gene ETFB,0.23
same,RNA-seq results: ETFB expression,gene ETFB,0.14
same,"RNA-seq results, ETHE1 expression",gene ETHE1,0.31
same,RNA-seq results: ETHE1 expression,gene ETHE1,0.31
same,"RNA-seq results, F2 expression",gene F2,0.11
same,RNA-seq results: F2 expression,gene F2,0.31
same,"RNA-seq results, F2RL1 expression",gene F2RL1,−0.53
same,RNA-seq results: F2RL1 expression,gene F2RL1,0.01
same,"RNA-seq results, F5 expression",gene F5,−0.08
same,RNA-seq results: F5 expression,gene F5,−0.44
same,"RNA-seq results, F9 expression",gene F9,−0.53
same,RNA-seq results: F9 expression,gene F9,−0.17
same,"RNA-seq results, FABP1 expression",gene FABP1,0.73
same,RNA-seq results: FABP1 expression,gene FABP1,−0.05
same,"RNA-seq results, FADD expression",gene FADD,−0.14
same,RNA-seq results: FADD expression,gene FADD,0.13
same,"RNA-seq results, FAM111A expression",gene FAM111A,−0.08
same,RNA-seq results: FAM111A expression,gene FAM111A,−0.05
same,"RNA-seq results, FAM111B expression",gene FAM111B,0.11
same,RNA-seq results: FAM111B expression,gene FAM111B,−0.44
same,"RNA-seq results, FAN1 expression",gene FAN1,−0.06
same,RNA-seq results: FAN1 expression,gene FAN1,−0.14
same,"RNA-seq results, FARS2 expression",gene FARS2,−0.22
same,RNA-seq results: FARS2 expression,gene FARS2,−0.04
same,"RNA-seq results, FASLG expression",gene FASLG,1.15
same,RNA-seq results: FASLG expression,gene FASLG,−0.66
same,"RNA-seq results, FGA expression",gene FGA,−0.25
same,RNA-seq results: FGA expression,gene FGA,−0.37
same,"RNA-seq results, FGD1 expression",gene FGD1,−0.25
same,RNA-seq results: FGD1 expression,gene FGD1,0.14
same,"RNA-seq results, FGFR2 expression",gene FGFR2,−0.13
same,RNA-seq results: FGFR2 expression,gene FGFR2,−0.42
same,"RNA-seq results, FIG4 expression",gene FIG4,−0.30
same,RNA-seq results: FIG4 expression,gene FIG4,0.3
same,"RNA-seq results, FIS1 expression",gene FIS1,0.44
same,RNA-seq results: FIS1 expression,gene FIS1,0.25
same,"RNA-seq results, FTCD expression",gene FTCD,0.58
same,RNA-seq results: FTCD expression,gene FTCD,0.43
same,"RNA-seq results, FTH1 expression",gene FTH1,−0.04
same,RNA-seq results: FTH1 expression,gene FTH1,0.7
same,"RNA-seq results, FUCA1 expression",gene FUCA1,−0.23
same,RNA-seq results: FUCA1 expression,gene FUCA1,0.07
same,"RNA-seq results, FXN expression",gene FXN,−0.69
same,RNA-seq results: FXN expression,gene FXN,0.12
same,"RNA-seq results, G6PC3 expression",gene G6PC3,0.06
same,RNA-seq results: G6PC3 expression,gene G6PC3,0.29
same,"RNA-seq results, G6PC expression",gene G6PC,0.23
same,RNA-seq results: G6PC expression,gene G6PC,0.01
same,"RNA-seq results, G6PD expression",gene G6PD,0.08
same,RNA-seq results: G6PD expression,gene G6PD,0.59
same,"RNA-seq results, GALK1 expression",gene GALK1,0.18
same,RNA-seq results: GALK1 expression,gene GALK1,0.34
same,"RNA-seq results, GALK2 expression",gene GALK2,−0.13
same,RNA-seq results: GALK2 expression,gene GALK2,−0.11
same,"RNA-seq results, GALT expression",gene GALT,0.15
same,RNA-seq results: GALT expression,gene GALT,0.26
same,"RNA-seq results, GATA6 expression",gene GATA6,−0.08
same,RNA-seq results: GATA6 expression,gene GATA6,−0.02
same,"RNA-seq results, GATM expression",gene GATM,−0.37
same,RNA-seq results: GATM expression,gene GATM,−0.37
same,"RNA-seq results, GBA expression",gene GBA,−0.19
same,RNA-seq results: GBA expression,gene GBA,0.27
same,"RNA-seq results, GBE1 expression",gene GBE1,−0.20
same,RNA-seq results: GBE1 expression,gene GBE1,−0.08
same,"RNA-seq results, GCH1 expression",gene GCH1,−0.27
same,RNA-seq results: GCH1 expression,gene GCH1,−0.25
same,"RNA-seq results, GCKR expression",gene GCKR,0.29
same,RNA-seq results: GCKR expression,gene GCKR,0.32
same,"RNA-seq results, GCLC expression",gene GCLC,−0.18
same,RNA-seq results: GCLC expression,gene GCLC,−0.14
same,"RNA-seq results, GGCX expression",gene GGCX,0.10
same,RNA-seq results: GGCX expression,gene GGCX,−0.22
same,"RNA-seq results, GHR expression",gene GHR,−0.27
same,RNA-seq results: GHR expression,gene GHR,−0.6
same,"RNA-seq results, GJB2 expression",gene GJB2,−0.37
same,RNA-seq results: GJB2 expression,gene GJB2,0.1
same,"RNA-seq results, GLDC expression",gene GLDC,0.02
same,RNA-seq results: GLDC expression,gene GLDC,−0.33
same,"RNA-seq results, GLIS3 expression",gene GLIS3,−0.13
same,RNA-seq results: GLIS3 expression,gene GLIS3,−0.41
same,"RNA-seq results, GLS2 expression",gene GLS2,−0.24
same,RNA-seq results: GLS2 expression,gene GLS2,−0.06
same,"RNA-seq results, GLYCTK expression",gene GLYCTK,0.32
same,RNA-seq results: GLYCTK expression,gene GLYCTK,0.43
same,"RNA-seq results, GNE expression",gene GNE,−0.21
same,RNA-seq results: GNE expression,gene GNE,−0.11
same,"RNA-seq results, GNPTAB expression",gene GNPTAB,−0.49
same,RNA-seq results: GNPTAB expression,gene GNPTAB,−0.13
same,"RNA-seq results, GOSH expression",gene GOSH,−0.17
same,RNA-seq results: GOSH expression,gene GOSH,0.44
same,"RNA-seq results, GPC3 expression",gene GPC3,−0.45
same,RNA-seq results: GPC3 expression,gene GPC3,0.06
